{"source": "patent US20120058133A1", "about": "“INHIBITION OF TRNA SYNTHETASES AND THERAPEUTIC APPLICATIONS THEREOF” (President and Fellows of Harvard College, priority 2009, published 2012)", "tested_on": "murine CD4+ CD25− T cells", "assay": "Th17 differentiation of activated CD4+ CD25− T cells (TGFβ plus IL-6; IL-17+ IFNγ− cells)", "assay_type": "cell-based, mouse", "details": "for rescue of HF-inhibited Th17 differentiation by added amino acids: 1 mM amino acids; for IC50: Mus musculus, T-cell", "experimental": "Purified CD4^+ CD25^− T cells were activated in vitro as previously described (Djuretic et al., Nat. Immunol. 8:145, 2007) using 0.3 μg/ml hamster anti-mouse CD3 (clone 145-2C11) (ATCC—Manassas, Va.) and 0.5 μg/ml hamster anti-mouse CD28 (BD Pharmingen—San Jose, Calif.). Activated cell cultures were differentiated using the following combinations of cytokines and antibodies: iTreg-recombinant human TGFβ1 (3 ng/ml—R&D systems, Minneapolis, Minn.), Th17-TGFβ1 (3 ng/ml) plus recombinant mouse IL-6 (30 ng/ml—R&D systems). Th1 and Th2 differentiation was performed as previously described (Djuretic et al., Nat. Immunol. 8:145, 2007). Human IL-2 supernatant (National Cancer Institute) was used in culture at 0.01 U/ml and was added at 48 hours-post activation when T cells were split into tissue culture wells lacking CD3 and CD28 antibodies, with the exception of Th17 cultures that were maintained in the absence of exogenous IL-2. CD8^+ T cells were activated with 1 μg/ml anti-CD3 and 1 μg/ml anti-CD28 and were expanded in 0.1 U/ml IL-2 until day 6 post activation. CD43-depleted B cells were activated in vitro by culturing with 25 μg/ml LPS (Sigma—St. Louis, Mo.) for 3-4 days in the presence or absence of TGFβ. All reagents (see below) were added at the time of T cell activation and again at 48 hours post activation unless indicated otherwise. For some experiments, purified CD4^+ CD25^− T cells, CD8^+ T cells or B cells were labeled with 1 μM CFSE (Invitrogen) prior to activation in accordance with manufacturer's instructions. Human T cell activation was performed by plating purified monocytes in a 96-well flat bottom plate at a concentration of 2×10^4 cells per well in complete medium overnight. 10^5 purified human memory T cells were added to monocyte cultures in the presence of soluble anti-CD3/anti-CD28 beads (Dynabeads, Invitrogen). T cells were expanded in the presence HF or MAZ1310 for up to 6 days.\nMAZ1310 (Kamberov, Ph.D. Dissertation, Harvard University, 2008) was generated by chemical derivatization of halofuginone and was used at equal concentrations as a negative control. HF and MAZ1310 were prepared as 100 mM stock solutions in DMSO and diluted to the indicated concentrations. SB-431542 (Inman et al., Mol. Pharmacol. 62:65, 2002) (Tocris bioscience—Ellisville, Mo.) was prepared as a 10 mM stock solution in DMSO and was used in culture at 10 μM. L-tryptophanol was prepared as a 20 mM stock solution in 0.1 M NaOH, pH 7.4 and was used at 0.2 mM. For amino acid starvation experiments, T cells were activated and differentiated as above in D-MEM medium without L-cysteine and L-methionine (Invitrogen—Carlsbad, Calif.), or D-MEM medium without L-leucine. Stocks containing 20 mM L-cysteine (Sigma—St. Louis, Mo.) plus 10 mM L-methionine (Sigma), or 400 mM L-leucine (Sigma) were prepared in ddH2O, pH 1.0 and were added to medium at the indicated concentrations.\nFor detection of intracellular cytokines in murine cells, cultured T or B cells were stimulated with 10 nM PMA (Sigma) and […] (Sigma) for 4-5 hours in the presence of 10 mM brefeldin A (Sigma). Stimulated cells were harvested, washed with PBS and fixed with PBS plus 4% paraformaldehyde at room temperature for 20 minutes. Cells were then washed with PBS, permeabilized with PBS supplemented with 1% BSA and 0.5% saponin (Sigma) at room temperature for 10 minutes before cytokine-specific antibodies were added and incubated with cells for an additional 20 minutes at room temperature.", "note": "Where two headings read alike, the source gives them in different places.", "data": [{"molecule": "O=C(CC1NCCCC1O)Cn1cnc2cc(Br)c(Cl)cc2c1=O", "note": "(racemic) [HF, halofuginone]", "values": [{"measurement": "IL-17 expression with IFNγ and IL-4 blocked by neutralizing antibodies", "result": "reduced IL-17 expression"}, {"measurement": "Th17 differentiation in T cells transduced with RORγt-expressing vs empty retroviruses", "result": "inhibited Th17 differentiation as effectively"}, {"measurement": "IL-17 expression in cells with equivalent number of cell divisions (CFSE dilution)", "setting": "5 nM, 10 nM HF", "result": "inhibited IL-17 expression in a dose-dependent manner"}, {"measurement": "IL-17 expression in T cells lacking Foxp3", "setting": "10 nM HF", "result": "strongly repressed IL-17 expression"}, {"measurement": "Th17 differentiation of T cells expressing STAT3C", "setting": "10 nM HF", "result": "remained capable of differentiating into Th17 cells"}, {"measurement": "upregulation of RORγt or RORα during Th17 differentiation", "setting": "10 nM HF", "result": "did not interfere"}, {"measurement": "time of HF addition for inhibition of IL-17 expression", "setting": "10 nM HF added at times after activation", "result": "most pronounced when HF was added during a 12-hour window at the start of the culture period"}, {"measurement": "rescue of HF-inhibited Th17 differentiation by added amino acids", "setting": "10 nM HF", "result": "only proline rescued Th17 differentiation"}, {"measurement": "rescue of HF-inhibited Th17 differentiation by added amino acids", "setting": "10 nM HF, listed as halofuginone", "result": "Proline, and no other added amino acid, rescues the inhibition of Th17 differentiation"}, {"measurement": "Foxp3 expression in T cells differentiated with TGFβ plus IL-6", "setting": "10 nM HF, day 3", "result": "enhanced Foxp3 expression"}, {"measurement": "expression of IL-17 and IL-17f mRNA", "setting": "10 nM, 4 days, Th17 conditions", "result": "impaired"}, {"measurement": "IC50", "setting": "96 h, restimulation on day 4-5, read-out: IC50 for Th17 differentiation (percentage of IL-17+ IFNγ− cells)", "result": 3.6, "unit": "nM"}, {"measurement": "IC50", "setting": "read-out: concentration giving 50% inhibition of Th17 cell development", "result": "~3", "unit": "nM"}, {"measurement": "Th17 differentiation of cells expressing YFP or no transgene", "setting": "TAT-Cre treated, TGFβ plus IL-6", "result": "strongly impaired Th17 differentiation"}, {"measurement": "IL-17 production", "setting": "low concentrations of HF (1-10 nM)", "result": "strongly reduced"}]}, {"molecule": "tunicamycin", "values": [{"measurement": "IL-17 expression in T cells", "setting": "low concentrations of tunicamycin", "result": "little influence on IL-17 expression"}]}]}
